# Structures can show the parent of a compound that is named as a salt.
# Assays:
# [1] = biological target: T1, c-KIT kinase (Seq. ID No. 1) (Homo sapiens, UniProt P10721); assay: c-KIT kinase assay (pyruvate kinase/lactate dehydrogenase coupled, A340); type: biochemical; settings: enzymatic assay, ATP 200 μM; read-out: cKIT
# T1 construct: c-KIT (cKIT residues T544-V976, from ProQinase, 5.4 nM); purchased ProQinase
# Experimental: Activity of c-KIT kinase (Seq. ID No. 1) was determined by following the production of ADP from the kinase reaction through coupling with the pyruvate kinase/lactate dehydrogenase system (e.g., Schindler et al. Science 2000, 289, pp. 1938-1942). In this assay, the oxidation of NADH (thus the decrease at A340 nm) was continuously monitored spectrophotometrically. The reaction mixture (100 μl) contained c-KIT (cKIT residues T544-V976, from ProQinase, 5.4 nM), polyE4Y (1 mg/mL), MgCl2 (10 mM), pyruvate kinase (4 units), lactate dehydrogenase (0.7 units), phosphoenol pyruvate (1 mM), and NADH (0.28 mM) in 90 mM Tris buffer containing 0.2% octyl-glucoside and 1% DMSO, pH 7.5. Test compounds were incubated with c-KIT (Seq. ID No. 1) and other reaction reagents at 22° C. for less than 2 min before ATP (200 μM) was added to start the reaction. The absorption at 340 nm was monitored continuously for 0.5 hours at 30° C. on Polarstar Optima plate reader (BMG). The reaction rate was calculated using the 0 to 0.5 h time frame. Percent inhibition was obtained by comparison of reaction rate with that of a control (i.e., with no test compound). IC50 values were calculated from a series of percent inhibition values determined at a range of inhibitor concentrations using software routines as implemented in the GraphPad Prism software package.
# [2] = biological target: KDR kinase (Seq ID No. 3) (Homo sapiens, UniProt P35968, DEL940-989/E990V); assay: KDR kinase assay (assays K1, K2, K3); type: biochemical; settings: enzymatic assay; variant K1, K2 or K3 not given
# Experimental: The activity of KDR kinase was determined by following the production of ADP from the kinase reaction through coupling with the pyruvate kinase/lactate dehydrogenase system (e.g., Schindler et al. Science 2000, 289, pp. 1938-1942). In this assay, the oxidation of NADH (thus the decrease at A340 nm) was continuously monitored spectrophotometrically. The reaction mixture (100 μl) contained KDR (Seq ID No. 3, 1.5 nM to 7.1 nM, nominal concentration), polyE4Y (1 mg/mL), pyruvate kinase (3.5 units), lactate dehydrogenase (5.5 units), phosphoenolpyruvate (1 mM), and NADH (0.28 mM) in 60 mM Tris buffer containing 0.13% octyl-glucoside, 13 mM MgCl2, 6.8 mM DTT, test compound, and 3.5% DMSO at pH 7.5. The reaction was initiated by adding ATP (0.2 mM, final concentration). The absorption at 340 nm was continuously monitored for 3 h at 30° C. on a Polarstar Optima plate reader (BMG) or instrument of similar capacity. The reaction rate was calculated using the 1 h to 2 h time frame. Percent inhibition was obtained by comparison of reaction rate with that of a control (i.e., with no test compound). IC50 values were calculated from a series of percent inhibition values determined at a range of inhibitor concentrations using software routines as implemented in the GraphPad Prism software package.
# KDR kinase assay K2 is the same as for assay K1 except that (1) a nominal concentration of 2.1 nM of enzyme was employed (2) the reaction was pre-incubated with test compound at 30° C. for 2 h prior to initiation with ATP and (3) 1.0 mM ATP (final concentration) was used to initiate the reaction.
# KDR kinase assay K3 is the same as for assay K1 except that (1) a nominal concentration of 1.1 nM of enzyme was employed, (2) the buffer components per 100 μl reaction mixture were as follows: 75 mM Tris buffer containing 0.066% octyl-glucoside, 17 mM MgCl2, and 1% DMSO at pH 7.5, (3) the final concentration of DTT was 0.66 mM, (4) the reaction was pre-incubated with test compound at 30° C. for 1 h prior to initiation with ATP, and (5) 1.0 mM ATP (final concentration) was used to initiate the reaction.
# EBC-1 cells = assay: EBC-1 cell proliferation assay (resazurin); type: cell-based; settings: Homo sapiens, 67 h + 5 h resazurin, read-out: EBC1 Proliferation
# Experimental: (§1) EBC-1 cells (catalog #JCRB0820) were obtained from the Japan Health Science Research Resources Bank, Osaka, Japan. Briefly, cells were grown in DMEM supplemented with 10% characterized fetal bovine serum (Invitrogen, Carlsbad, Calif.) at 37° C., 5% CO2, 95% humidity. Cells were allowed to expand until reaching 70-95% confluency at which point they were subcultured or harvested for assay use.
# A serial dilution of test compound was dispensed into a 96-well black clear bottom plate (Corning, Corning, N.Y.). For each cell line, five thousand cells were added per well in 200 μL complete growth medium. Plates were incubated for 67 hours at 37° C., 5% CO2, 95% humidity. At the end of the incubation period 40 μL of a 440 μM solution of resazurin (Sigma, St. Louis, Mo.) in PBS was added to each well and incubated for an additional 5 hours at 37° C., 5% CO2, 95% humidity. Plates were read on a Synergy2 reader (Biotek, Winooski, Vt.) using an excitation of 540 nm and an emission of 600 nm. Data was analyzed using Prism software (GraphPad, San Diego, Calif.) to calculate IC50 values.
# [3] = biological target: T2, Phospho-MET in MKN-45 cells (Homo sapiens, UniProt P08581); assay: MKN-45 phospho-MET ELISA; type: cell-based; settings: 6 h compound, 40 ng/mL HGF 10 min, read-out: MKN-45 pMET
# T2 construct: endogenous in cells; host or cells: MKN-45 (JCRB0254)
# Experimental: as §1, with “MKN-45” for “EBC-1”, “#JCRB0254)” for “#JCRB0820)”, “RPMI 1640 media” for “DMEM”
# Twenty-five thousand cells in RPMI-1640 supplemented with 10% characterized fetal bovine serum (Invitrogen, Carlsbad, Calif.) were added per well in a 96-well black clear bottom plate (Corning, Corning, N.Y.). Cells were then incubated overnight at 37 degrees Celsius, 5% CO2, 95% humidity. Media was then aspirated and cells were washed with PBS. A serial dilution of test compound was dispensed into another 96-well black clear bottom plate (Corning, Corning, N.Y.) containing serum-free RPMI-1640. Compound was added to plates containing cells and incubated for 6 hours at 37 degrees Celsius, 5% CO2, 95% humidity. Cells were stimulated with 40 ng/mL HGF (R&D Systems, Minneapolis, Minn.) for 10 minutes, and then lysed. Phospho-MET in cell lysates was detected using the DuoSet IC Human Phospho-HGF R/c-MET ELISA (R&D Systems, Minneapolis, Minn.). Data was analyzed using Prism software (Graphpad, San Diego, Calif.) to calculate IC50 values.
# T2 sequence (P08581 25-1390): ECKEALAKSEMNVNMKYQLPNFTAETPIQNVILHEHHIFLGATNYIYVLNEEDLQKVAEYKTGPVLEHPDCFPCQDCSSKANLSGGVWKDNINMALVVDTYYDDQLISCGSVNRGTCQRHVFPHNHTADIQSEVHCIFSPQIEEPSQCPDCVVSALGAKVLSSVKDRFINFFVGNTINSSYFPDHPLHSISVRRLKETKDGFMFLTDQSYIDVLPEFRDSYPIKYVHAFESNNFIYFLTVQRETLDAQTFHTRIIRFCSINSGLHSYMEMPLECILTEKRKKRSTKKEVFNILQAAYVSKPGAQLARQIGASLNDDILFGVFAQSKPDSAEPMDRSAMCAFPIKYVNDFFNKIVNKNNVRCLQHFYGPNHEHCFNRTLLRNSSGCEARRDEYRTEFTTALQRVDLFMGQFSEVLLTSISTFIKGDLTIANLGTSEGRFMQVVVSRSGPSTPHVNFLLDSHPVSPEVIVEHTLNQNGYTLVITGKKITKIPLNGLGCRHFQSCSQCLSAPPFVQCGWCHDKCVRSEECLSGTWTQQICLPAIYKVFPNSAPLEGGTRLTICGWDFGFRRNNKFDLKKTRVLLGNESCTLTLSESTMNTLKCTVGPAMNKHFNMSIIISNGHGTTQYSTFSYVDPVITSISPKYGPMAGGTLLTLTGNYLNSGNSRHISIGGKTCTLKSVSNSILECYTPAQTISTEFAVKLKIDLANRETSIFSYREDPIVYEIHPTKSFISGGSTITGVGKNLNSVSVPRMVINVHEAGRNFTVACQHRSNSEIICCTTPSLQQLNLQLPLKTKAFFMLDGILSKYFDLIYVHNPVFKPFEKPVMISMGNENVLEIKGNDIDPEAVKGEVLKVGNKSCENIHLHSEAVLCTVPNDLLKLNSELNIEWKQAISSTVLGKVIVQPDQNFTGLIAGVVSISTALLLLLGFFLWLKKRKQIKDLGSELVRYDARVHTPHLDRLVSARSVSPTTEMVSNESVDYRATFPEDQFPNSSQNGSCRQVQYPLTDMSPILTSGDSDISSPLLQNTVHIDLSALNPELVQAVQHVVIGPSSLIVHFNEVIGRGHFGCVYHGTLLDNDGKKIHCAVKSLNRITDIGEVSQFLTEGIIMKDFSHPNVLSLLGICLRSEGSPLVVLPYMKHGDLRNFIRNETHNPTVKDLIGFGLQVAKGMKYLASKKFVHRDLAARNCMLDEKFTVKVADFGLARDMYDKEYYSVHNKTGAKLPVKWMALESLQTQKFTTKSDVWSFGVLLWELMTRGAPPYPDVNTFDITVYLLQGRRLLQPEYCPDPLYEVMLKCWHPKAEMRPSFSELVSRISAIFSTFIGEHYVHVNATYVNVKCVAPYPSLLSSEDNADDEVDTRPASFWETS
# T1 sequence (P10721 with tags, fused parts or gaps): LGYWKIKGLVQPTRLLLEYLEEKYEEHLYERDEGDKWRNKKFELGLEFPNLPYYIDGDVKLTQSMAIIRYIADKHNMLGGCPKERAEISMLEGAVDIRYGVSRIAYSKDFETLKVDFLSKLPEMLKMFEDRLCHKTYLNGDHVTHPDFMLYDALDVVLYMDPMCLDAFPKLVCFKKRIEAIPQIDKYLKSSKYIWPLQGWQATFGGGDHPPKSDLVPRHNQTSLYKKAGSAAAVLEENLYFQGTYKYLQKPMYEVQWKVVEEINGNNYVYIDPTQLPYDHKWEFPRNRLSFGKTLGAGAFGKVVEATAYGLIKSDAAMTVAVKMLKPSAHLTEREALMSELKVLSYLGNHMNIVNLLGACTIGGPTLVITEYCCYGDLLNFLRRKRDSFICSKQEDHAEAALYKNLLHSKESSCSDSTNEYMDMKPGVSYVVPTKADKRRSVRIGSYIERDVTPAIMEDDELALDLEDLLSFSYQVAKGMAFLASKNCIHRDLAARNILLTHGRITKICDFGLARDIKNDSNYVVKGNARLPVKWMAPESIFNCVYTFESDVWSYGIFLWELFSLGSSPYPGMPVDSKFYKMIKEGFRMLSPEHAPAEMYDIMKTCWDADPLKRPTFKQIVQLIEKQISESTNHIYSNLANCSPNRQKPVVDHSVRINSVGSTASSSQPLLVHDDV
# Chain of KDR kinase (Seq ID No. 3) (P35968 with tags, fused parts or gaps DEL940-989/E990V): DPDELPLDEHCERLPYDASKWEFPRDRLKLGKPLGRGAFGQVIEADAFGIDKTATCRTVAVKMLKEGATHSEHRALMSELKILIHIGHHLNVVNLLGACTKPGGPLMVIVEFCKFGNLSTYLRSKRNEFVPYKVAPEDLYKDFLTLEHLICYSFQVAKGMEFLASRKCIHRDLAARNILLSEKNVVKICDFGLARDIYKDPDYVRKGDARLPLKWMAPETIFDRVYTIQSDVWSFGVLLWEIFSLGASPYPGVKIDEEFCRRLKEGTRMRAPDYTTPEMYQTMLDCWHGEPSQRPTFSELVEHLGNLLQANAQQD
SMILES,IC50 [1] [nM],IC50 [2] [nM],IC50 (EBC-1 cells) [nM],IC50 [3] [nM]
"Cn1cc(-c2cc(Oc3cc(F)c(NC(=O)c4cccn(-c5ccc(F)cc5)c4=O)cc3F)ccn2)cn1 [Example 1, N-(2,5-difluoro-4-((2-(1-methyl-1H-pyrazol-4-yl)pyridin-4-yl)oxy)phenyl)-1-(4-fluorophenyl)-2-oxo-1,2-dihydropyridine-3-carboxamide]",≤ 100,> 1000,≤ 100,≤ 100
"O=C(Nc1cc(F)c(Oc2ccnc(-c3cnn(CCO)c3)c2)cc1F)c1cccn(-c2ccc(F)cc2)c1=O [Example 3, N-(2,5-difluoro-4-((2-(1-(2-hydroxyethyl)-1H-pyrazol-4-yl)pyridin-4-yl)oxy)phenyl)-1-(4-fluorophenyl)-2-oxo-1,2-dihydropyridine-3-carboxamide hydrochloride]",> 1000,> 1000,,≤ 100
"CCNc1ccn(-c2ccc(F)cc2)c(=O)c1C(=O)Nc1cc(F)c(Oc2ccnc(-c3cnn(C)c3)c2)cc1F [Example 5, N-(2,5-difluoro-4-((2-(1-methyl-1H-pyrazol-4-yl)pyridin-4-yl)oxy)phenyl)-4-(ethylamino)-1-(4-fluorophenyl)-2-oxo-1,2-dihydropyridine-3-carboxamide]",> 1000,> 1000,100 to 1000,
"CCOc1ccn(-c2ccc(F)cc2)c(=O)c1C(=O)Nc1cc(F)c(Oc2ccnc(-c3cnn(C)c3)c2)cc1F [Example 2, N-(2,5-difluoro-4-(2-(1-methyl-1H-pyrazol-4-yl)pyridin-4-yloxy)phenyl)-4-ethoxy-1-(4-fluorophenyl)-2-oxo-1,2-dihydropyridine-3-carboxamide]",> 1000,> 1000,≤ 100,≤ 100
